In patent US6358885B1, “Substituted phenylheterocyclic herbicides” (Mississippi State University, priority 1992, dated 2002):

What was measured:
lambsquarters = assay: Test C preemergence/postemergence greenhouse plant response rating 0 to 100; assay type: in vivo, Chenopodium album; conditions: POSTEMERGENCE
Procedure, shortened: (§1)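 Compounds in non-phytotoxic solvent went onto sandy loam before emergence (seeded one day earlier) or onto plants at the one-to-four leaf stage. Duck salad was treated via flood water (~2.5 cm, maintained) over silt loam.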

downy brome = assay: as above; assay type: in vivo, Bromus tectorum; conditions: POSTEMERGENCE
Procedure, shortened: as §1

barley = assay: as above; assay type: in vivo, Hordeum vulgare; conditions: POSTEMERGENCE
Procedure, shortened: as §1

chickweed [1] = assay: as above; assay type: in vivo, Stellaria media; conditions: POSTEMERGENCE
Procedure, shortened: as §1

wild oat = assay: Test B preemergence/postemergence greenhouse plant response rating 0 to 10; assay type: in vivo, Avena fatua; conditions: 0 to 10 scale
Procedure, shortened: (§2)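 Both application timings were run together: seeds got compound preemergence, and established seedlings (two to eighteen cm) got it postemergence. Non-phytotoxic solvent carried the chemical. Ratings are visual, versus controls, at twelve to sixteen days.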

corn = assay: as above; assay type: in vivo, Zea mays; conditions: 0 to 10 scale
Procedure, shortened: as §2

sugar beet = assay: Test C preemergence/postemergence greenhouse plant response rating 0 to 100; assay type: in vivo, Beta vulgaris; conditions: POSTEMERGENCE
Procedure, shortened: as §1

sorghum = assay: Test B preemergence/postemergence greenhouse plant response rating 0 to 10; assay type: in vivo, Sorghum bicolor; conditions: 0 to 10 scale
Procedure, shortened: as §2

ryegrass = assay: Test C preemergence/postemergence greenhouse plant response rating 0 to 100; assay type: in vivo, Lolium multiflorum; conditions: POSTEMERGENCE
Procedure, shortened: as §1

duck salad = assay: Test C flood test plant response rating 0 to 100; assay type: in vivo, Heteranthera limosa
Procedure, shortened: as §1

cotton = assay: Test C preemergence/postemergence greenhouse plant response rating 0 to 100; assay type: in vivo, Gossypium hirsutum; conditions: POSTEMERGENCE
Procedure, shortened: as §1

cheatgrass = assay: Test B preemergence/postemergence greenhouse plant response rating 0 to 10; assay type: in vivo, Bromus secalinus; conditions: 0 to 10 scale
Procedure, shortened: as §2

velvetleaf = assay: Test C preemergence/postemergence greenhouse plant response rating 0 to 100; assay type: in vivo, Abutilon theophrasti; conditions: POSTEMERGENCE
Procedure, shortened: as §1

soybean = assay: as above; assay type: in vivo, Glycine max; conditions: POSTEMERGENCE
Procedure, shortened: as §1

chickweed [2] = assay: Test B preemergence/postemergence greenhouse plant response rating 0 to 10; assay type: in vivo, Stellaria media; conditions: 0 to 10 scale
Procedure, shortened: as §2

wild buckwheat [3] = assay: Test C preemergence/postemergence greenhouse plant response rating 0 to 100; assay type: in vivo, Polygonum convolvulus; conditions: POSTEMERGENCE
Procedure, shortened: as §1

wild buckwheat [4] = assay: Test B preemergence/postemergence greenhouse plant response rating 0 to 10; assay type: in vivo, Polygonum convolvulus; conditions: 0 to 10 scale
Procedure, shortened: as §2

giant foxtail = assay: as above; assay type: in vivo, Setaria faberii; conditions: 0 to 10 scale
Procedure, shortened: as §2

For `COCN1C(=O)COc2cc(F)c(-c3nn4c(c3Br)CCCC4)cc21` [Compound 67], the “Plant response rating Lambsquarters” value (lambsquarters; 62 g/ha, 0 to 100 scale) was 100, the “Plant response rating (0 to 100), Lambsquarters” value (lambsquarters; Rate 1 g/ha) was 100 and the “Plant response rating (0 to 100), Lambsquarters” value (lambsquarters; Rate 4 g/ha) was 100. The “Plant response rating (0 to 100), Lambsquarters” value (lambsquarters; Rate 16 g/ha) was 100, the “Plant response rating Downy Brome” value (downy brome; 62 g/ha, 0 to 100 scale) was 60 and the “Plant response rating (0 to 100), Downy Brome” value (downy brome; Rate 1 g/ha) was 20. For the same compound, the “Plant response rating (0 to 100), Downy Brome” value (downy brome; Rate 4 g/ha) was 50, the “Plant response rating (0 to 100), Downy Brome” value (downy brome; Rate 16 g/ha) was 60 and the “Plant response rating Barley Igri” value (barley; 62 g/ha, 0 to 100 scale) was 50. The “Plant response rating (0 to 100), Barley Igri” value (barley; Rate 1 g/ha) was 20, the “Plant response rating (0 to 100), Barley Igri” value (barley; Rate 4 g/ha) was 30 and the “Plant response rating (0 to 100), Barley Igri” value (barley; Rate 16 g/ha) was 30. For the same compound, the “Plant response rating, Chickweed” value (chickweed [1]; 62 g/ha, 0 to 100 scale) was 100, the “Plant response rating (0 to 100), Chickweed” value (chickweed [1]; Rate 1 g/ha) was 70 and the “Plant response rating (0 to 100), Chickweed” value (chickweed [1]; Rate 4 g/ha) was 70. The “Plant response rating (0 to 100), Chickweed” value (chickweed [1]; Rate 16 g/ha) was 95, the “Plant response rating, Wild oat” value (wild oat; POSTEMERGENCE, Rate 10 g/ha) was 6 and the “Plant response rating, Wild oat” value (wild oat; POSTEMERGENCE, Rate 50 g/ha) was 7. The “Plant response rating, Wild oat” value (wild oat; PREEMERGENCE, Rate 50 g/ha) was 5, the “Plant response rating, Corn” value (corn; POSTEMERGENCE, Rate 10 g/ha) was 3 and the “Plant response rating, Corn” value (corn; POSTEMERGENCE, Rate 50 g/ha) was 4. For the same compound, the “Plant response rating, Corn” value (corn; PREEMERGENCE, Rate 50 g/ha) was 2, the “Plant response rating, Sugar beet” value (sugar beet; 62 g/ha, 0 to 100 scale) was 100 and the “Plant response rating (0 to 100), Sugar beet” value (sugar beet; Rate 1 g/ha) was 100. For the same compound, the “Plant response rating (0 to 100), Sugar beet” value (sugar beet; Rate 4 g/ha) was 100, the “Plant response rating (0 to 100), Sugar beet” value (sugar beet; Rate 16 g/ha) was 100 and the “Plant response rating, Sorghum” value (sorghum; POSTEMERGENCE, Rate 10 g/ha) was 5. For the same compound, the “Plant response rating, Sorghum” value (sorghum; POSTEMERGENCE, Rate 50 g/ha) was 6, the “Plant response rating, Sorghum” value (sorghum; PREEMERGENCE, Rate 50 g/ha) was 2 and the “Plant response rating Ryegrass” value (ryegrass; 62 g/ha, 0 to 100 scale) was 60. The “Plant response rating (0 to 100), Ryegrass” value (ryegrass; Rate 1 g/ha) was 20, the “Plant response rating (0 to 100), Ryegrass” value (ryegrass; Rate 4 g/ha) was 40 and the “Plant response rating (0 to 100), Ryegrass” value (ryegrass; Rate 16 g/ha) was 50. For the same compound, the “Plant response rating (0 to 100), Duck salad” value (duck salad; POSTEMERGENCE section, flood test, Rate 1 g/ha) was 0, the “Plant response rating (0 to 100), Duck salad” value (duck salad; POSTEMERGENCE section, flood test, Rate 4 g/ha) was 0 and the “Plant response rating (0 to 100), Duck salad” value (duck salad; Rate 16 g/ha, under POSTEMERGENCE head (flood test species)) was 0. The “Plant response rating Duck salad” value (duck salad; flood test species listed under POSTEMERGENCE, 62 g/ha, 0 to 100 scale) was 10, the “Plant response rating, Cotton” value (cotton; 62 g/ha, 0 to 100 scale) was 100 and the “Plant response rating (0 to 100), Cotton” value (cotton; Rate 1 g/ha) was 95. The “Plant response rating (0 to 100), Cotton” value (cotton; Rate 4 g/ha) was 100, the “Plant response rating (0 to 100), Cotton” value (cotton; Rate 16 g/ha) was 100 and the “Plant response rating, Cheatgrass” value (cheatgrass; POSTEMERGENCE, Rate 10 g/ha) was 5. The “Plant response rating, Cheatgrass” value (cheatgrass; POSTEMERGENCE, Rate 50 g/ha) was 6, the “Plant response rating, Cheatgrass” value (cheatgrass; PREEMERGENCE, Rate 10 g/ha) was 2 and the “Plant response rating, Cheatgrass” value (cheatgrass; PREEMERGENCE, Rate 50 g/ha) was 6. For the same compound, the “Plant response rating, Velvetleaf” value (velvetleaf; 62 g/ha, 0 to 100 scale) was 100, the “Plant response rating (0 to 100), Velvetleaf” value (velvetleaf; Rate 1 g/ha) was 70 and the “Plant response rating (0 to 100), Velvetleaf” value (velvetleaf; Rate 4 g/ha) was 85. The “Plant response rating (0 to 100), Velvetleaf” value (velvetleaf; Rate 16 g/ha) was 100, the “Plant response rating, Soybean” value (soybean; 62 g/ha, 0 to 100 scale) was 95 and the “Plant response rating (0 to 100), Soybean” value (soybean; Rate 1 g/ha) was 30. For the same compound, the “Plant response rating (0 to 100), Soybean” value (soybean; Rate 4 g/ha) was 50, the “Plant response rating (0 to 100), Soybean” value (soybean; Rate 16 g/ha) was 80 and the “Plant response rating, Chickweed” value (chickweed [2]; POSTEMERGENCE, Rate 10 g/ha) was 7. For the same compound, the “Plant response rating, Chickweed” value (chickweed [2]; POSTEMERGENCE, Rate 50 g/ha) was 9, the “Plant response rating, Chickweed” value (chickweed [2]; PREEMERGENCE, Rate 10 g/ha) was 0 and the “Plant response rating, Chickweed” value (chickweed [2]; PREEMERGENCE, Rate 50 g/ha) was 6. For the same compound, the “Plant response rating, Wild buckwheat” value (wild buckwheat [3]; 62 g/ha, 0 to 100 scale) was 100, the “Plant response rating (0 to 100), Wild buckwheat” value (wild buckwheat [3]; Rate 4 g/ha) was 70 and the “Plant response rating (0 to 100), Wild buckwheat” value (wild buckwheat [3]; Rate 16 g/ha) was 100. For the same compound, the “Plant response rating, Wild buckwheat” value (wild buckwheat [4]; POSTEMERGENCE, Rate 10 g/ha) was 10, the “Plant response rating, Wild buckwheat” value (wild buckwheat [4]; POSTEMERGENCE, Rate 50 g/ha) was 10 and the “Plant response rating, Wild buckwheat” value (wild buckwheat [4]; PREEMERGENCE, Rate 50 g/ha) was 10. The “Plant response rating, Giant foxtail” value (giant foxtail; POSTEMERGENCE, Rate 10 g/ha) was 5, the “Plant response rating, Giant foxtail” value (giant foxtail; POSTEMERGENCE, Rate 50 g/ha) was 6 and the “Plant response rating, Giant foxtail” value (giant foxtail; PREEMERGENCE, Rate 10 g/ha) was 0. For the same compound, the “Plant response rating, Giant foxtail” value (giant foxtail; PREEMERGENCE, Rate 50 g/ha) was 2.
